Reference: ChEMBL document CHEMBL5325488, “Discovery of SMD-3040 as a Potent and Selective SMARCA2 PROTAC Degrader with Strong in vivo Antitumor Activity” (J Med Chem, 2023)
Active and inactive are the calls of the source. The calls are words filed in the database; no cut-off is given here.

Key:
[1] = biological target: T1, von Hippel-Lindau disease tumor suppressor/SWI/SNF-related matrix-associated actin-dependent regulator of chromatin subfamily A member 2 (Homo sapiens, UniProt P51531+P40337); experiment: PROTAC activity at VHL/wild-type SMARCA2 in human NCI-H838 cells assessed as induction of SMARCA2 degradation incubated for 24 hrs by Western blotting analysis; type: cell-based
[2] = biological target: T2, von Hippel-Lindau disease tumor suppressor/SWI/SNF-related matrix-associated actin-dependent regulator of chromatin subfamily A member 4 (Homo sapiens, UniProt P51532+P40337); experiment: In vivo PROTAC activity at VHL/SMARCA4 in SCID mouse xenografted with human MV4-11 cells assessed as remaining activity in tumor at 50 mg/kg, iv administered as single dose measured after 72 hrs by Western blotting analysis (reference value: 100 +/- 15 % ); type: ADME, organism-based
Target sequence in this assay (P51532 whole entry): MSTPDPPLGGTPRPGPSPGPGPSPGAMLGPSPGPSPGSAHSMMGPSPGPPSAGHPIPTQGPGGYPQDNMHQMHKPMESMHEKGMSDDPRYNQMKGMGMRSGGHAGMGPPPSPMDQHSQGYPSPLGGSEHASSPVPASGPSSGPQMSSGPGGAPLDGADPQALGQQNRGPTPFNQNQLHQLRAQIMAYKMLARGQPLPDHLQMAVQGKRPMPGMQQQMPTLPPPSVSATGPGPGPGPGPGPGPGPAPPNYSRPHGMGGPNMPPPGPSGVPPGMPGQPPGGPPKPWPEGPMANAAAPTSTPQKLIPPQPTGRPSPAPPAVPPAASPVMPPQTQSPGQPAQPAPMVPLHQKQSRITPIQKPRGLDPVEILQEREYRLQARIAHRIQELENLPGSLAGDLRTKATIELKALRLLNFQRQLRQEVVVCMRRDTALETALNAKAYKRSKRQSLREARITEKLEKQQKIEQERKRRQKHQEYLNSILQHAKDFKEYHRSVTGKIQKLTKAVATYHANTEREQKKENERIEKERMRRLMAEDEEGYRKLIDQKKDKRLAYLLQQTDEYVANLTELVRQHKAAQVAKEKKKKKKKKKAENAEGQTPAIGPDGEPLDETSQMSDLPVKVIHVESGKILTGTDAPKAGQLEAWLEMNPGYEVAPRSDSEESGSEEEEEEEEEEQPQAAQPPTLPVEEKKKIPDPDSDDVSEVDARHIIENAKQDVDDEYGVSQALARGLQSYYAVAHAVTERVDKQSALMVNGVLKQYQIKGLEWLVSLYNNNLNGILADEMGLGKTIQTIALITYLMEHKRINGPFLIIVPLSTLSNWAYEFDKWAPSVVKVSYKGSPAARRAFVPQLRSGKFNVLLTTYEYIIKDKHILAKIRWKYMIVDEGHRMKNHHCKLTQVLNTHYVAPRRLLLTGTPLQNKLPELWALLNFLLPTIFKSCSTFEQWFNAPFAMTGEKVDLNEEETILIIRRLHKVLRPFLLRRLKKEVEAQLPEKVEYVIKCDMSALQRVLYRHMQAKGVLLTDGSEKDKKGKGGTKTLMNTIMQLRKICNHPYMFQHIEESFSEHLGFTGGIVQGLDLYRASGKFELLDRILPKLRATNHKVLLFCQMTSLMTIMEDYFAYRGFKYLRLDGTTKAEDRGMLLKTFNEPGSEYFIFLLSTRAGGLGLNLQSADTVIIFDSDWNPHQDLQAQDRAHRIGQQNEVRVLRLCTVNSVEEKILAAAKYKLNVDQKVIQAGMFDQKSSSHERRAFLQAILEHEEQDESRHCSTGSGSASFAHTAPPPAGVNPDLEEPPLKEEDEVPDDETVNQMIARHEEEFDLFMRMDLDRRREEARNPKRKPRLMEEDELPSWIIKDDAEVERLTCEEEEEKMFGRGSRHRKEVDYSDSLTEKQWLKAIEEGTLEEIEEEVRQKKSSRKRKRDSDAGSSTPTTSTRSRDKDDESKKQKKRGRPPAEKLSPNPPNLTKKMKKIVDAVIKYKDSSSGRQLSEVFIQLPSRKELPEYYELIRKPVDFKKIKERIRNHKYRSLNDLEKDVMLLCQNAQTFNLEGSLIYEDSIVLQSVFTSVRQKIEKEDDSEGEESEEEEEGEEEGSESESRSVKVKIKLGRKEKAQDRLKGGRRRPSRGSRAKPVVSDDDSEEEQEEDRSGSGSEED
Target sequence in this assay (P40337 whole entry): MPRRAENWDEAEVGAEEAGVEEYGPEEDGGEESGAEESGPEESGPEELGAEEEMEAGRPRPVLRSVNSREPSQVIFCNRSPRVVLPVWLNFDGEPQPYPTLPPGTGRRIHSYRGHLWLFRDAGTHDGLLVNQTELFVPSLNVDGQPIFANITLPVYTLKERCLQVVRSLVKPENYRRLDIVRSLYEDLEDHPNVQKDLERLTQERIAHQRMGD

[3] = biological target: T2, von Hippel-Lindau disease tumor suppressor/SWI/SNF-related matrix-associated actin-dependent regulator of chromatin subfamily A member 4; experiment: In vivo PROTAC activity at VHL/SMARCA4 in SCID mouse xenografted with human MV4-11 cells assessed as remaining activity in tumor at 50 mg/kg, iv administered as single dose measured after 96 hrs by Western blotting analysis (reference value: 100 +/- 15 % ); type: ADME, organism-based
Target sequence in this assay (P51532 whole entry): as the sequence (P51532 whole entry) above
Target sequence in this assay (P40337 whole entry): as the sequence (P40337 whole entry) above

NCI-H1693 = experiment: Antiproliferative activity against SMARCA4-deficient human NCI-H1693 cells assessed as cell growth inhibition by measuring maximal efficacy measured after 7 days by WST-8 assay relative to control; type: functional; conditions: time 7 day
NCI-H838 = experiment: Antitumor activity against SMARCA4-deficient human NCI-H838 cells xenografted in SCID mouse assessed as tumor growth inhibition at 50 mg/kg, iv administered twice a week measured after 3 weeks relative to control; type: functional; conditions: NCI-H838, 504 h, read-out: TGI
[4] = biological target: T2, von Hippel-Lindau disease tumor suppressor/SWI/SNF-related matrix-associated actin-dependent regulator of chromatin subfamily A member 4; experiment: PROTAC activity at VHL/C-terminal HiBiT fused SMARCA4 in human HeLa cells assessed as induction of SMARCA4 degradation incubated for 3 hrs by Nano-Glo HiBiT analysis; type: cell-based
Target sequence in this assay (P51532 whole entry): as the sequence (P51532 whole entry) above
Target sequence in this assay (P40337 whole entry): as the sequence (P40337 whole entry) above

SK-MEL-5 [5] = experiment: Antitumor activity against SMARCA4-deficient human SK-MEL-5 cells xenografted in SCID mouse assessed as tumor growth inhibition at 25 mg/kg, iv administered twice a week measured after 32 days relative to control; type: functional; conditions: SK-MEL-5, 768 h, time 32 day, read-out: TGI
NCI-H1975 = experiment: Antiproliferative activity against human NCI-H1975 cells expressing wild-type SMARCA2 assessed as cell growth inhibition measured after 7 days by WST-8 assay; type: functional; conditions: NCI-H1975, 168 h, time 7 day
[6] = Toxicity in SCID mouse xenografted with human SK-MEL-5 cells assessed as effect on change in body weight at 50 mg/kg, iv administered twice a week measured after 3 weeks; type: organism-based; conditions: in vivo, 504 h
[7] = Drug concentration in SCID mouse tumor xenografted with human MV4-11 cells at 50 mg/kg, iv measured after 24 hrs by LC-MS/MS method; type: ADME, organism-based, Neoplasm; conditions: read-out: Ct
[8] = biological target: T2, von Hippel-Lindau disease tumor suppressor/SWI/SNF-related matrix-associated actin-dependent regulator of chromatin subfamily A member 4; experiment: In vivo PROTAC activity at VHL/SMARCA4 in SCID mouse xenografted with human MV4-11 cells assessed as remaining activity in tumor at 50 mg/kg, iv administered as single dose measured after 2 hrs by Western blotting analysis (reference value: 100 +/- 15 % ); type: ADME, organism-based
Target sequence in this assay (P51532 whole entry): as the sequence (P51532 whole entry) above
Target sequence in this assay (P40337 whole entry): as the sequence (P40337 whole entry) above

[9] = biological target: T1, von Hippel-Lindau disease tumor suppressor/SWI/SNF-related matrix-associated actin-dependent regulator of chromatin subfamily A member 2; experiment: (§1) PROTAC activity at VHL/C-terminal HiBiT fused SMARCA2 in human HeLa cells assessed as induction of SMARCA2 degradation pre-treated with MLN4924 for 2 hrs followed by compound treatment for 24 hrs by Nano-Glo HiBiT analysis; type: cell-based
Target sequence in this assay (P40337 whole entry, looked up): as the sequence (P40337 whole entry) above
Target sequence in this assay (P51531 whole entry, looked up): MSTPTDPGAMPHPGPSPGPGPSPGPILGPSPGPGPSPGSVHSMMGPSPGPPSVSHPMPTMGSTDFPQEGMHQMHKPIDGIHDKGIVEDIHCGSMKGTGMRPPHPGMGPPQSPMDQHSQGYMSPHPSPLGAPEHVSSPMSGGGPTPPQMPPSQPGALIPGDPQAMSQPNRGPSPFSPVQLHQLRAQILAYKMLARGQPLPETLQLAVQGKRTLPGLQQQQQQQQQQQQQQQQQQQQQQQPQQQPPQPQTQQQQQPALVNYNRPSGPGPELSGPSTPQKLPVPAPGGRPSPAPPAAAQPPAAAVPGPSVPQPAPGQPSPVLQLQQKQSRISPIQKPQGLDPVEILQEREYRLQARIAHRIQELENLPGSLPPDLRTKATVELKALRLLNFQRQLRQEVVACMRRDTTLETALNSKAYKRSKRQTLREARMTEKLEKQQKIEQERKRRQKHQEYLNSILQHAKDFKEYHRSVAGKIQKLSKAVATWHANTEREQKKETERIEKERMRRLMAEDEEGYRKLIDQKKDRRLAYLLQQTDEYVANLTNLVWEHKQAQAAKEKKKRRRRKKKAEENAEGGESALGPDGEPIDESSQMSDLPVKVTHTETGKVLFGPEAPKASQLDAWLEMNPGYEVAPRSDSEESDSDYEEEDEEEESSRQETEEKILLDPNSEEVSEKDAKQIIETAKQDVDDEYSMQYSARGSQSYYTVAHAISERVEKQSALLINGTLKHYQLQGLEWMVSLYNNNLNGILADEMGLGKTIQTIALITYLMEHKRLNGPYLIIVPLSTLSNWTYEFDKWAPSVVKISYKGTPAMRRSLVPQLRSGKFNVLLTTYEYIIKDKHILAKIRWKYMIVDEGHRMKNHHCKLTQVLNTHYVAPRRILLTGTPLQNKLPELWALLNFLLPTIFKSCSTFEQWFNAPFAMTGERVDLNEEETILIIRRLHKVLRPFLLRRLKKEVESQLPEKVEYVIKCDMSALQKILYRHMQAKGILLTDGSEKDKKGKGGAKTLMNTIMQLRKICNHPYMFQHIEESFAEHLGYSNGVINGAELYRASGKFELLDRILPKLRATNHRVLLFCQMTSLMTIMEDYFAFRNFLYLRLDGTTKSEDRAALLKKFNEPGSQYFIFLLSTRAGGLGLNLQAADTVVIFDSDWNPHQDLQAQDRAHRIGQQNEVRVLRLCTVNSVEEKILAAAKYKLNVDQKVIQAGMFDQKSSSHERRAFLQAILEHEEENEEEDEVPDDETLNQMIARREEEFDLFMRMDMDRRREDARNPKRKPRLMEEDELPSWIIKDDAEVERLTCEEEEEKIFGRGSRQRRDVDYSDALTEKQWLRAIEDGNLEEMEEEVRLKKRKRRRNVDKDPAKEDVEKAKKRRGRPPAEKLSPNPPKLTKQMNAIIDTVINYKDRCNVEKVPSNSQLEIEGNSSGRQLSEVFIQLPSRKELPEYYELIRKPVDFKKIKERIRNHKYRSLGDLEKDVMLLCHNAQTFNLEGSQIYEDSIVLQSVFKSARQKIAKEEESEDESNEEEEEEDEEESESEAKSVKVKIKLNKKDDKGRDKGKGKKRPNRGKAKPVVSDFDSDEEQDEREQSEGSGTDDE

[10] = biological target: T1, von Hippel-Lindau disease tumor suppressor/SWI/SNF-related matrix-associated actin-dependent regulator of chromatin subfamily A member 2; experiment: as §1, with “(2S,4R)-1-((S)-2-acetamido-3,3-dimethylbutanoyl)-4-hydroxy-N-((S)-1-(4-(4-methylthiazol-5-yl)phenyl)ethyl)pyrrolidine-2-carboxamide” for “MLN4924”; type: cell-based
Target sequence in this assay (P40337 whole entry, looked up): as the sequence (P40337 whole entry) above
Target sequence in this assay (P51531 whole entry, looked up): as the sequence (P51531 whole entry, looked up) above

[11] = biological target: T1, von Hippel-Lindau disease tumor suppressor/SWI/SNF-related matrix-associated actin-dependent regulator of chromatin subfamily A member 2; experiment: PROTAC activity at VHL/wild-type SMARCA2 in human SK-MEL-28 cells assessed as induction of SMARCA2 degradation incubated for 24 hrs by Western blotting analysis; type: cell-based
SK-MEL-5 [12] = experiment: Antitumor activity against SMARCA4-deficient human SK-MEL-5 cells xenografted in SCID mouse assessed as tumor growth inhibition at 50 mg/kg, iv administered twice a week measured after 32 days relative to control; type: functional; conditions: SK-MEL-5, 768 h, time 32 day, read-out: TGI
[13] = biological target: T1, von Hippel-Lindau disease tumor suppressor/SWI/SNF-related matrix-associated actin-dependent regulator of chromatin subfamily A member 2; experiment: PROTAC activity at VHL/C-terminal HiBiT fused SMARCA2 in human HeLa cells assessed as induction of SMARCA2 degradation at 0.001 to 10 uM by Nano-Glo HiBiT analysis; type: cell-based; conditions: dose 0.001-10 µM, time 1-48 hrs, TDE = time-dependent effect
Target sequence in this assay (P40337 whole entry, looked up): as the sequence (P40337 whole entry) above
Target sequence in this assay (P51531 whole entry, looked up): as the sequence (P51531 whole entry, looked up) above

[14] = Drug concentration in SCID mouse tumor xenografted with human MV4-11 cells at 50 mg/kg, iv measured after 48 hrs by LC-MS/MS method; type: ADME, organism-based, Neoplasm; conditions: read-out: Ct
[15] = biological target: T2, von Hippel-Lindau disease tumor suppressor/SWI/SNF-related matrix-associated actin-dependent regulator of chromatin subfamily A member 4; experiment: PROTAC activity at VHL/C-terminal HiBiT fused SMARCA4 in human HeLa cells assessed as induction of SMARCA4 degradation by measuring maximal efficacy at 0.001 to 10 uM incubated for 6 hrs by Nano-Glo HiBiT analysis relative to control; type: cell-based; conditions: dose 0.001-10 µM
[16] = Toxicity in SCID mouse xenografted with human SK-MEL-5 cells assessed as effect on change in body weight at 25 to 50 mg/kg, iv administered twice a week measured after 32 days; type: organism-based; conditions: in vivo, 768 h, dose 25-50 mg/kg, time 32 day
[17] = biological target: T2, von Hippel-Lindau disease tumor suppressor/SWI/SNF-related matrix-associated actin-dependent regulator of chromatin subfamily A member 4; experiment: PROTAC activity at VHL/C-terminal HiBiT fused SMARCA4 in human HeLa cells assessed as induction of SMARCA4 degradation by measuring maximal efficacy at 0.001 to 10 uM incubated for 1 hr by Nano-Glo HiBiT analysis relative to control; type: cell-based; conditions: dose 0.001-10 µM
[18] = biological target: T2, von Hippel-Lindau disease tumor suppressor/SWI/SNF-related matrix-associated actin-dependent regulator of chromatin subfamily A member 4; experiment: PROTAC activity at VHL/C-terminal HiBiT fused SMARCA4 in human HeLa cells assessed as induction of SMARCA4 degradation incubated for 24 hrs by Nano-Glo HiBiT analysis; type: cell-based
Target sequence in this assay (P51532 whole entry): as the sequence (P51532 whole entry) above
Target sequence in this assay (P40337 whole entry): as the sequence (P40337 whole entry) above

[19] = biological target: T1, von Hippel-Lindau disease tumor suppressor/SWI/SNF-related matrix-associated actin-dependent regulator of chromatin subfamily A member 2; experiment: In vivo PROTAC activity at VHL/SMARCA2 in SCID mouse xenografted with human NCI-H838 cells assessed as remaining activity in tumor at 50 mg/kg, iv administered as single dose measured after 3 hrs by Western blotting analysis (reference value: 100 +/- 7% ); type: functional, organism-based
Target sequence in this assay (P40337 whole entry, looked up): as the sequence (P40337 whole entry) above
Target sequence in this assay (P51531 whole entry, looked up): as the sequence (P51531 whole entry, looked up) above

[20] = biological target: T2, von Hippel-Lindau disease tumor suppressor/SWI/SNF-related matrix-associated actin-dependent regulator of chromatin subfamily A member 4; experiment: In vivo PROTAC activity at VHL/SMARCA4 in SCID mouse xenografted with human MV4-11 cells assessed as reduction of SMARCA4 level in tumor at 50 mg/kg, iv administered as single dose measured after 2 hrs by Western blotting analysis; type: ADME, organism-based; set-up: scale not given: the % may be the effect or the level left
Target sequence in this assay (P51532 whole entry): as the sequence (P51532 whole entry) above
Target sequence in this assay (P40337 whole entry): as the sequence (P40337 whole entry) above

[21] = biological target: T1, von Hippel-Lindau disease tumor suppressor/SWI/SNF-related matrix-associated actin-dependent regulator of chromatin subfamily A member 2; experiment: PROTAC activity at VHL/wild-type SMARCA2 in human SK-MEL-5 cells assessed as induction of SMARCA2 degradation at 0.001 to 1000 nM incubated for 24 hrs by Western blotting analysis relative to control; type: cell-based; conditions: dose 0.001-1000 nM
Target sequence in this assay (P40337 whole entry, looked up): as the sequence (P40337 whole entry) above
Target sequence in this assay (P51531 whole entry, looked up): as the sequence (P51531 whole entry, looked up) above

[22] = Drug concentration in SCID mouse plasma xenografted with human MV4-11 cells at 50 mg/kg, iv measured after 6 hrs by LC-MS/MS method; type: ADME, organism-based
[23] = biological target: T1, von Hippel-Lindau disease tumor suppressor/SWI/SNF-related matrix-associated actin-dependent regulator of chromatin subfamily A member 2; experiment: PROTAC activity at VHL/wild-type SMARCA2 in human SK-MEL-28 cells assessed as induction of SMARCA2 degradation at 0.001 to 1000 nM incubated for 24 hrs by Western blotting analysis relative to control; type: cell-based; conditions: dose 0.001-1000 nM
Target sequence in this assay (P40337 whole entry, looked up): as the sequence (P40337 whole entry) above
Target sequence in this assay (P51531 whole entry, looked up): as the sequence (P51531 whole entry, looked up) above

DC50 [1]: 63 nM
Activity [2]: 91%
Activity [3]: 84%
DC50 [4]: > 3300 nM
GI50 (NCI-H1975): > 10000 nM
concentration at 24 h [7]: 2960 ng/g
Activity [8]: 93%
Activity [9]: inactive
Activity [10]: inactive
DC50 [11]: 35 nM
Activity [13]: Tde
concentration at 48 h [14]: 978 ng/g
Emax [15]: 49%
Emax [17]: 20%
DC50 [18]: > 339 nM
Activity [19]: 30%
Activity [20]: 7%
Emax [21]: 94%
concentration at 6 h [22]: 766 ng/mL
Emax [23]: 98%
Structure (SMILES): Cc1ncsc1-c1ccc([C@H](C)NC(=O)[C@@H]2C[C@@H](O)CN2C(=O)[C@@H](NC(=O)[C@H]2CC[C@H](CN3CC4(CCC(n5cc(-c6cc(-c7ccccc7O)nnc6N)cn5)CC4)C3)CC2)C(C)(C)C)cc1
Imax (NCI-H1693): 79%
inhibition in vivo at 50 mg/kg (NCI-H838): 81%
inhibition in vivo at 25 mg/kg (SK-MEL-5 [5]): 54%
Activity [6]: Non-Toxic
inhibition in vivo at 50 mg/kg (SK-MEL-5 [12]): 74%
Activity [16]: Non-Toxic
